# Test system: ER-alpha MCF7
# Assay: ER-alpha MCF7 HCS EC50; stated as measured by in vitro cell proliferation assays of Examples 902 and 903
# Type: cell-based
# Details: Homo sapiens, MCF7, MCF7 cells; Table 2
# Procedure, shortened: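 MCF7 cells seeded 1000-2000 cells/well for 16 h, then treated with nine-point 1:2 DMSO dilution series in quadruplicate at 37 °C, 5% CO2 for 4 days. Viable cells quantified by CellTiter-Glo ATP luminescence; EC50 calculated. Controls: fulvestrant at final 100 nM, DMSO 0.2% v/v.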
row,EC50 [nM],Structure (SMILES)
1,0.0528,"C[C@@H]1Cc2c([nH]c3ccccc23)[C@@H](c2c(F)cc(NC3CN(CCCF)C3)cc2F)N1C[C@@](C)(F)CO [Example 288, (R)-3-((1R,3R)-1-(2,6-difluoro-4-((1-(3-fluoropropyl)azetidin-3-yl)amino)phenyl)-3-methyl-1,3,4,9-tetrahydro-2H-pyrido[3,4-b]indol-2-yl)-2-fluoro-2-methylpropan-1-ol]"
2,0.199,"C[C@@H]1Cc2c([nH]c3ccccc23)[C@@H](c2c(F)cc(NC3CN(CCCF)C3)cc2F)N1C[C@](C)(F)CO [Example 289, (S)-3-((1R,3R)-1-(2,6-difluoro-4-((1-(3-fluoropropyl)azetidin-3-yl)amino)phenyl)-3-methyl-1,3,4,9-tetrahydro-2H-pyrido[3,4-b]indol-2-yl)-2-fluoro-2-methylpropan-1-ol]"
3,0.497,"C[C@@H]1Cc2c([nH]c3ccccc23)[C@@H](c2ccc(NC3CN(CCCF)C3)cc2F)N1C[C@@](C)(F)CO [Example 290, (R)-2-fluoro-3-((1R,3R)-1-(2-fluoro-4-((1-(3-fluoropropyl)azetidin-3-yl)amino)phenyl)-3-methyl-1,3,4,9-tetrahydro-2H-pyrido[3,4-b]indol-2-yl)-2-methylpropan-1-ol]"
4,0.13,"C[C@@H]1Cc2c([nH]c3ccccc23)[C@@H](c2ccc(NC3CN(CCCF)C3)cc2F)N1C[C@](C)(F)CO [Example 291, (S)-2-fluoro-3-((1R,3R)-1-(2-fluoro-4-((1-(3-fluoropropyl)azetidin-3-yl)amino)phenyl)-3-methyl-1,3,4,9-tetrahydro-2H-pyrido[3,4-b]indol-2-yl)-2-methylpropan-1-ol]"
5,2,"C[C@@H]1Cc2c([nH]c3ccccc23)[C@@H](c2ccc(NC3CN(CCCF)C3)cc2)N1C[C@@](C)(F)CO [Example 292, (R)-2-fluoro-3-((1R,3R)-1-(4-((1-(3-fluoropropyl)azetidin-3-yl)amino)phenyl)-3-methyl-1,3,4,9-tetrahydro-2H-pyrido[3,4-b]indol-2-yl)-2-methylpropan-1-ol]"
6,0.15,"C[C@@H]1Cc2c([nH]c3ccccc23)[C@@H](c2ccc(NC3CN(CCCF)C3)cc2)N1C[C@](C)(F)CO [Example 293, (S)-2-fluoro-3-((1R,3R)-1-(4-((1-(3-fluoropropyl)azetidin-3-yl)amino)phenyl)-3-methyl-1,3,4,9-tetrahydro-2H-pyrido[3,4-b]indol-2-yl)-2-methylpropan-1-ol]"
7,21,"CC(=O)CN1[C@@H](c2c(F)cc(OC3CN(CCCF)C3)cc2F)c2[nH]c3ccccc3c2C[C@H]1C [Example 295, 1-((1S,3R)-1-(2,6-difluoro-4-((1-(3-fluoropropyl)azetidin-3-yl)oxy)phenyl)-3-methyl-1,3,4,9-tetrahydro-2H-pyrido[3,4-b]indol-2-yl)propan-2-one]"
8,0.2,"C[C@@H]1Cc2c([nH]c3ccccc23)[C@@H](c2c(F)cc(NCCN3CC(CF)C3)cc2F)N1CC(F)(F)F [Example 296, 3,5-difluoro-N-(2-(3-(fluoromethyl)azetidin-1-yl)ethyl)-4-((1R,3R)-3-methyl-2-(2,2,2-trifluoroethyl)-2,3,4,9-tetrahydro-1H-pyrido[3,4-b]indol-1-yl)aniline]"
9,18,"C[C@@H]1Cc2c([nH]c3ccccc23)[C@@H](c2c(F)cc(OCCN3CC(CF)C3)cc2F)N1C[C@H](C)C(=O)N(C)C [Example 297, (S)-3-((1R,3R)-1-(2,6-difluoro-4-(2-(3-(fluoromethyl)azetidin-1-yl)ethoxy)phenyl)-3-methyl-1,3,4,9-tetrahydro-2H-pyrido[3,4-b]indol-2-yl)-N,N,2-trimethylpropanamide]"
10,5,"C[C@H](CN1[C@H](c2c(F)cc(OCCN3CC(CF)C3)cc2F)c2[nH]c3ccccc3c2C[C@H]1C)C(=O)N(C)C [Example 298, (R)-3-((1R,3R)-1-(2,6-difluoro-4-(2-(3-(fluoromethyl)azetidin-1-yl)ethoxy)phenyl)-3-methyl-1,3,4,9-tetrahydro-2H-pyrido[3,4-b]indol-2-yl)-N,N,2-trimethylpropanamide]"
11,3,"C[C@@H]1Cc2c([nH]c3ccccc23)[C@@H](c2c(F)cc(OCCN3CC(CF)C3)cc2F)N1C[C@H](C)C(=O)O [Example 299, (S)-3-((1R,3R)-1-(2,6-difluoro-4-(2-(3-(fluoromethyl)azetidin-1-yl)ethoxy)phenyl)-3-methyl-1,3,4,9-tetrahydro-2H-pyrido[3,4-b]indol-2-yl)-2-methylpropanoic acid]"
12,1,"C[C@H](CN1[C@H](c2c(F)cc(OCCN3CC(CF)C3)cc2F)c2[nH]c3ccccc3c2C[C@H]1C)C(=O)O [Example 300, (R)-3-((1R,3R)-1-(2,6-difluoro-4-(2-(3-(fluoromethyl)azetidin-1-yl)ethoxy)phenyl)-3-methyl-1,3,4,9-tetrahydro-2H-pyrido[3,4-b]indol-2-yl)-2-methylpropanoic acid]"
13,0.0881,"CC(C)(F)CN1[C@H](CF)Cc2c([nH]c3ccccc23)[C@H]1c1c(F)cc(OC2CN(CCCF)C2)cc1F [Example 301, (1R,3S)-1-(2,6-difluoro-4-((1-(3-fluoropropyl)azetidin-3-yl)oxy)phenyl)-2-(2-fluoro-2-methylpropyl)-3-(fluoromethyl)-2,3,4,9-tetrahydro-1H-pyrido[3,4-b]indole]"
14,0.12,"C[C@@H]1Cc2c([nH]c3ccccc23)[C@@H](c2c(F)cc(OC3CN(CCCF)C3)cc2F)N1CC(F)(F)CO [Example 302, 3-((1R,3R)-1-(2,6-difluoro-4-((1-(3-fluoropropyl)azetidin-3-yl)oxy)phenyl)-3-methyl-3,4-dihydro-1H-pyrido[3,4-b]indol-2(9H)-yl)-2,2-difluoropropan-1-ol]"
15,0.0482,"C[C@@H]1Cc2c([nH]c3ccccc23)[C@@H](c2c(F)cc(OC3CN(CCCF)C3)cc2F)N1CC(F)F [Example 303, (1R,3R)-2-(2,2-difluoroethyl)-1-[2,6-difluoro-4-[1-(3-fluoropropyl)azetidin-3-yl]oxy-phenyl]-3-methyl-1,3,4,9-tetrahydropyrido[3,4-b]indole]"
16,0.224,"C[C@@H]1Cc2c([nH]c3ccccc23)[C@@H](c2c(F)cc(NC3CN(CCCF)C3)cc2F)N1CC(F)(F)F [Example 304, N-(3,5-difluoro-4-((1R,3R)-3-methyl-2-(2,2,2-trifluoroethyl)-2,3,4,9-tetrahydro-1H-pyrido[3,4-b]indol-1-yl)phenyl)-1-(3-fluoropropyl)azetidin-3-amine]"
17,0.216,"C[C@@H]1Cc2c([nH]c3ccccc23)[C@@H](c2c(F)cc(OCCN3CC(CF)C3)cc2F)N1CC(F)F [Example 305, (1R,3R)-2-(2,2-difluoroethyl)-1-[2,6-difluoro-4-[2-[3-(fluoromethyl)azetidin-1-yl]ethoxy]phenyl]-3-methyl-1,3,4,9-tetrahydropyrido[3,4-b]indole]"
18,3,"C[C@@H]1Cc2c([nH]c3ccccc23)[C@H](c2c(F)cc(OCCN3CC(CF)C3)cc2F)N1CC(F)F [Example 306, (1S,3R)-2-(2,2-difluoroethyl)-1-[2,6-difluoro-4-[2-[3-(fluoromethyl)azetidin-1-yl]ethoxy]phenyl]-3-methyl-1,3,4,9-tetrahydropyrido[3,4-b]indole]"
19,0.193,"C[C@@H]1Cc2c([nH]c3ccccc23)[C@@H](c2c(F)cc(OC3CN(C4CC(F)(F)C4)C3)cc2F)N1CC(C)(C)F [Example 307, (1R,3R)-1-[4-[1-(3,3-difluorocyclobutyl)azetidin-3-yl]oxy-2,6-difluoro-phenyl]-2-(2-fluoro-2-methyl-propyl)-3-methyl-1,3,4,9-tetrahydropyrido[3,4-b]indole]"
20,0.127,"C[C@@H]1Cc2c([nH]c3ccccc23)[C@@H](c2c(F)cc(OC3CN(C/C=C/F)C3)cc2F)N1CC(C)(C)F [Example 308, (1R,3R)-1-[2,6-difluoro-4-[1-[(E)-3-fluoroallyl]azetidin-3-yl]oxy-phenyl]-2-(2-fluoro-2-methyl-propyl)-3-methyl-1,3,4,9-tetrahydropyrido[3,4-b]indole]"
21,6,"CC(CN1[C@H](c2c(F)cc(OC3CN(CCCF)C3)cc2F)c2[nH]c3ccccc3c2C[C@H]1C)S(C)(=O)=O (stereo partly drawn) [Example 309, (1R,3R)-1-(2,6-difluoro-4-((1-(3-fluoropropyl)azetidin-3-yl)oxy)phenyl)-3-methyl-2-(2-(methylsulfonyl)propyl)-2,3,4,9-tetrahydro-1H-pyrido[3,4-b]indole]"
22,0.708,"C[C@@H]1Cc2c([nH]c3ccccc23)[C@@H](c2ccc(NC3CN(CCCF)C3)cc2)N1S(C)(=O)=O [Example 310, 1-(3-fluoropropyl)-N-[4-[(1R,3R)-3-methyl-2-methylsulfonyl-1,3,4,9-tetrahydropyrido[3,4-b]indol-1-yl]phenyl]azetidin-3-amine]"
23,0.248,"C[C@@H]1Cc2c([nH]c3ccccc23)[C@@H](c2c(F)cc(NC3CN(CCCF)C3)cc2F)N1S(C)(=O)=O [Example 311, N-[3,5-difluoro-4-[(1R,3R)-3-methyl-2-methylsulfonyl-1,3,4,9-tetrahydropyrido[3,4-b]indol-1-yl]phenyl]-1-(3-fluoropropyl)azetidin-3-amine]"
24,2,"C=CS(=O)(=O)N1[C@H](c2ccc(OCCN3CC(CF)C3)cc2)c2[nH]c3ccccc3c2C[C@H]1C [Example 312, (1R,3R)-1-[4-[2-[3-(fluoromethyl)azetidin-1-yl]ethoxy]phenyl]-3-methyl-2-vinylsulfonyl-1,3,4,9-tetrahydropyrido[3,4-b]indole]"
25,1,"CNS(=O)(=O)N1[C@H](c2ccc(OCCN3CC(CF)C3)cc2)c2[nH]c3ccccc3c2C[C@H]1C [Example 313, (1R,3R)-1-[4-[2-[3-(fluoromethyl)azetidin-1-yl]ethoxy]phenyl]-N,3-dimethyl-1,3,4,9-tetrahydropyrido[3,4-b]indole-2-sulfonamide]"
26,9,"C[C@@H]1Cc2c([nH]c3ccccc23)[C@H](c2ccc(NC3CN(CCCF)C3)cc2)N1S(C)(=O)=O [Example 314, 1-(3-fluoropropyl)-N-[4-[(1S,3R)-3-methyl-2-methylsulfonyl-1,3,4,9-tetrahydropyrido[3,4-b]indol-1-yl]phenyl]azetidin-3-amine]"
